# The source made the active and inactive calls. The calls are words filed in the database; no cut-off is given here.
# How the values were obtained:
# 518A2 [1] = assay: Induction of apoptosis in human 518A2 cells assessed as viable cells at 50 uM after 6 hrs by Annexin V FITC and propidium iodide staining by FACS analysis; format: functional; conditions: 518A2, 6 h, read-out: Activity
# 518A2 [2] = assay: Induction of apoptosis in human 518A2 cells assessed as total apoptotic cells at 50 uM after 6 hrs by Annexin V FITC and propidium iodide staining by FACS analysis; format: functional
# 518A2 [3] = assay: Induction of apoptosis in human 518A2 cells assessed as necrotic cells at 50 uM after 6 hrs by Annexin V FITC and propidium iodide staining by FACS analysis; format: functional
# 518A2 [4] = assay: Induction of apoptosis in human 518A2 cells assessed as formation of DNA ladder at 50 uM after 24 hrs using AO/PI dye by fluorescence microscopic analysis; format: functional, cell-based
# [5] = Cell cycle arrest in human 518A2 cells assessed as accumulation at S phase at 50 uM after 24 hrs by propidium iodide staining (reference value: 44.643%); format: functional, cell-based
# [6] = Cell cycle arrest in human 518A2 cells assessed as accumulation at G2/M phase at 50 uM after 24 hrs by propidium iodide staining (reference value: 8.694%); format: functional, cell-based
# [7] = Cell cycle arrest in human 518A2 cells assessed as accumulation at G1/G0 phase at 50 uM after 24 hrs by propidium iodide staining (reference value: 46.662%); format: functional, cell-based
# A549 = assay: Cytotoxicity against human A549 cells after 96 hrs by SRB assay; format: functional, cell-based
# NIH3T3 = assay: Cytotoxicity against mouse NIH/3T3 cells after 96 hrs by SRB assay; format: cell-based
# HT-29 = assay: Cytotoxicity against human HT-29 cells after 96 hrs by SRB assay; format: functional, cell-based
# 8505C = assay: Cytotoxicity against human 8505C cells after 96 hrs by SRB assay; format: functional, cell-based
# A2780 = assay: Cytotoxicity against human A2780 cells after 96 hrs by SRB assay; format: functional, cell-based
# MCF7 = assay: Cytotoxicity against human MCF7 cells after 96 hrs by SRB assay; format: functional, cell-based
# [8] = Cytotoxicity against human 518A2 cells after 96 hrs by SRB assay; format: functional, cell-based
# 518A2 [9] = assay: Induction of apoptosis in human 518A2 cells assessed as viable cells at 30 uM after 6 hrs by Annexin V FITC and propidium iodide staining by FACS analysis; format: functional; conditions: 518A2, 6 h, read-out: Activity
# 518A2 [10] = assay: Induction of apoptosis in human 518A2 cells assessed as total apoptotic cells at 30 uM after 6 hrs by Annexin V FITC and propidium iodide staining by FACS analysis; format: functional
# 518A2 [11] = assay: Induction of apoptosis in human 518A2 cells assessed as necrotic cells at 30 uM after 6 hrs by Annexin V FITC and propidium iodide staining by FACS analysis; format: functional
# [12] = Cell cycle arrest in human 518A2 cells assessed as accumulation at S phase at 30 uM after 24 hrs by propidium iodide staining (reference value: 44.643%); format: functional, cell-based
# [13] = Cell cycle arrest in human 518A2 cells assessed as accumulation at G2/M phase at 30 uM after 24 hrs by propidium iodide staining (reference value: 8.694%); format: functional, cell-based
# [14] = Cell cycle arrest in human 518A2 cells assessed as accumulation at G1/G0 phase at 30 uM after 24 hrs by propidium iodide staining (reference value: 46.662%); format: functional, cell-based
Structure (SMILES),viability at 50 µM (518A2 [1]) [%],Activity (518A2 [2]) [%],Activity (518A2 [3]) [%],Activity (518A2 [4]),Activity [5] [%],Activity [6] [%],Activity [7] [%],IC50 (A549) [µmol],IC50 (NIH3T3) [µmol],IC50 (HT-29) [µmol],IC50 (8505C) [µmol],IC50 (A2780) [µmol],IC50 (MCF7) [µmol],IC50 [8] [µmol],viability at 30 µM (518A2 [9]) [%],Activity (518A2 [10]) [%],Activity (518A2 [11]) [%],Activity [12] [%],Activity [13] [%],Activity [14] [%]
COC(=O)[C@@]1(C)CC[C@]2(C)CC[C@]3(C)c4c([se]c1c42)C(=O)[C@@H]1[C@@]2(C)CC[C@H](OC(C)=O)C(C)(C)[C@@H]2CC[C@]13C,-15,13.2,1.8,Active,8,-86,9,46.9,46.1,67.2,42.2,33.7,45.6,36.7,–,–,–,–,–,–
COC(=O)[C@@]1(C)CC[C@]2(C)CC[C@]3(C)C(=CC(=O)[C@@H]4[C@@]5(C)CC[C@H](OC(C)=O)C(C)(C)[C@@H]5CC[C@]43C)[C@@H]2C1,-19.3,16.8,2.5,–,4,-7,-2,42.6,101.4,77.4,116.4,40.5,51.6,26.1,–,–,–,–,–,–
COC(=O)[C@@]1(C)CC[C@]2(C)CC[C@]3(C)[C@@]4(C(=O)OC1=C24)C(=O)[C@@H]1[C@@]2(C)CC[C@H](OC(C)=O)C(C)(C)[C@@H]2CC[C@]13C,–,–,–,–,–,–,–,15,38.1,58.7,73.2,19.7,33.5,14.7,-4.3,3.9,0.5,-8,-15,11
